Source: paper PMC8286840, “Identifying SARS-CoV-2 antiviral compounds by screening for small molecule inhibitors of Nsp3 papain-like protease” (Biochemical Journal, 2021)
Structures can show the parent of a compound that is named as a salt. Where two headings read alike, the source gives them in different places.

Columns and labels:
[1] = biological target: T1, SARS-CoV-2 PLpro (nsp3 1564–1878) (Severe acute respiratory syndrome coronavirus 2, UniProt P0DTD1); test: biochemical; parameters: FRET-quenched peptide (Pro3) cleavage by PLpro, 10 min pre-incubation, slope over 20 min, normalised to no-compound control; conditions: low concentration screen, read-out: % of control remaining
[2] = biological target: T1, SARS-CoV-2 PLpro (nsp3 1564–1878); test: biochemical; parameters: FRET-quenched peptide (Pro3) cleavage by PLpro, 10 min pre-incubation, slope over 20 min, normalised to no-compound control; conditions: high concentration screen, read-out: % of control remaining

Q: What does the source list for `CC1=C(/C=C/C(C)=C/C=C/C(C)=C/C(=O)Nc2ccc(O)cc2)C(C)(C)CCC1` [4-Hydroxyphenylretinamide]?
A: remaining activity at 1.25 µM ([1]; Well no.=4432): 99%; remaining activity at 3.75 µM ([2]; Well no.=4432): 97.3%

Q: `COc1ccc2c3c([nH]c2c1)C(C)=NCC3` [Harmaline] was tested. Which remaining activity at 1.25 µM ([1]; Well no.=3286) did it give?
A: 99.5%

Q: And the remaining activity at 3.75 µM ([2]; Well no.=3286)?
A: 99.1%

Q: What does the source list for `CC[C@H]1OC(=O)C[C@@H](O)[C@H](C)[C@@H](O[C@@H]2O[C@H](C)[C@@H](O[C@H]3C[C@@](C)(O)[C@@H](O)[C@H](C)O3)[C@H](N(C)C)[C@H]2O)[C@@H](CC=O)C[C@@H](C)C(=O)/C=C/C(C)=C/[C@@H]1CO[C@@H]1O[C@H](C)[C@@H](O)[C@@H](OC)[C@H]1OC` [Tylosin tartrate]?
A: remaining activity at 1.25 µM ([1]; Well no.=4985): 95.4%; remaining activity at 3.75 µM ([2]; Well no.=4985): 93%

Q: For `O=c1cc(-c2ccc(O)cc2)oc2cc(O[C@@H]3O[C@H](CO)[C@@H](O)[C@H](O)[C@H]3O)cc(O)c12` [Apigenin-7-glucoside], which remaining activity at 1.25 µM ([1]; Well no.=3635) is on record?
A: 97.8%

Q: What about the remaining activity at 3.75 µM ([2]; Well no.=3635) of the same compound?
A: 93.3%

Q: Which remaining activity at 1.25 µM ([1]; Well no.=6837) does the source give for `CC(C(=O)O)c1ccccc1` (stereo not shown) [2-Phenylpropionic acid] here?
A: 94.4%

Q: What about the remaining activity at 3.75 µM ([2]; Well no.=6837) of the same compound?
A: 95.3%

Q: With `O=[N+]([O-])c1ccc(Nc2nc(N3CCOCC3)nc(N3CCOCC3)n2)cc1` [4,6-di(4-morpholinyl)-N-(4-nitrophenyl)-1,3,5-triazin-2-amine] as the compound, how does the remaining activity at 1.25 µM ([1]; Well no.=6018) read?
A: 94.4%

Q: And the remaining activity at 3.75 µM ([2]; Well no.=6018)?
A: 92.3%

Q: Which results are given for `COc1cc2nc(C3CC3)nc(N3CCN(c4ccccc4OC)CC3)c2cc1OC` [ML314]?
A: remaining activity at 1.25 µM ([1]; Well no.=7913): 97.1%; remaining activity at 3.75 µM ([2]; Well no.=7913): 98.2%

Q: How did the remaining activity at 1.25 µM ([1]; Well no.=694) turn out when `CCNC(=O)[C@H]1O[C@@H](n2cnc3c(N)ncnc32)[C@H](O)[C@@H]1O` [5'-N-Ethylcarboxamidoadenosine] was run?
A: 97.5%

Q: What about the remaining activity at 1.25 µM ([1]; Well no.=7950) of the same compound?
A: 95.4%

Q: What about the remaining activity at 1.25 µM ([1]; Well no.=8119) of the same compound?
A: 104%

Q: And the remaining activity at 3.75 µM ([2]; Well no.=694)?
A: 96%

Q: And the remaining activity at 3.75 µM ([2]; Well no.=7950)?
A: 96.2%

Q: And the remaining activity at 3.75 µM ([2]; Well no.=8119)?
A: 102%

Q: `CCN(CC)CCNC(=O)c1ccc(NC(C)=O)cc1` [N-Acetylprocainamide hydrochloride] was tested. Which remaining activity at 1.25 µM ([1]; Well no.=19) did it give?
A: 104%

Q: What about the remaining activity at 3.75 µM ([2]; Well no.=19) of the same compound?
A: 103%

Q: Which results are given for `NC/C=C/C(=O)O` [(E)-4-amino-2-butenoic acid]?
A: remaining activity at 1.25 µM ([1]; Well no.=1283): 103%; remaining activity at 3.75 µM ([2]; Well no.=1283): 101%

Q: Which remaining activity at 1.25 µM ([1]; Well no.=4837) does the source give for `COc1cc(NC(=O)c2ccccn2)ccc1Cl` [VU 0361737] here?
A: 98.5%

Q: And the remaining activity at 3.75 µM ([2]; Well no.=4837)?
A: 106%

Q: With `CCCCC/C=C\C/C=C\CCCCCCCCCCCC(=O)O` [13(Z),16(Z)-Docosadienoic acid] as the compound, how does the remaining activity at 1.25 µM ([1]; Well no.=4462) read?
A: 100%

Q: And the remaining activity at 3.75 µM ([2]; Well no.=4462)?
A: 101%

Q: With `Nc1ccc(O)c(C(=O)O)c1` [5-Aminosalicylic acid] as the compound, how does the remaining activity at 1.25 µM ([1]; Well no.=2121) read?
A: 105%

Q: What about the remaining activity at 3.75 µM ([2]; Well no.=2121) of the same compound?
A: 104%

Q: For `CC(C)NCC(O)COc1ccc(CCOCC2CC2)cc1` (stereo not shown) [Betaxolol (hydrochloride)], which remaining activity at 1.25 µM ([1]; Well no.=6849) is on record?
A: 107%

Q: And the remaining activity at 3.75 µM ([2]; Well no.=6849)?
A: 102%

Q: `O=C1NCN(c2ccccc2)C12CCN(CCCC(c1ccc(F)cc1)c1ccc(F)cc1)CC2` [Fluspirilene] was tested. Which remaining activity at 1.25 µM ([1]; Well no.=569) did it give?
A: 98.4%

Q: What about the remaining activity at 3.75 µM ([2]; Well no.=569) of the same compound?
A: 97.3%

Q: And the remaining activity at 3.75 µM ([2]; Well no.=1599)?
A: 98.9%

Q: How did the remaining activity at 1.25 µM ([1]; Well no.=6450) turn out when `COC[C@@]12CC[C@H](OC)[C@@]34[C@@H]5C[C@@]6(O)[C@H](OC(=O)c7ccccc7)[C@@H]5[C@@](OC(C)=O)([C@@H]([C@H](OC)[C@H]13)[C@H]4N(C)C2)[C@@H](O)[C@@H]6OC` [Hypaconitine] was run?
A: 88.9%

Q: What about the remaining activity at 3.75 µM ([2]; Well no.=6450) of the same compound?
A: 87.8%

Q: Which remaining activity at 1.25 µM ([1]; Well no.=3775) does the source give for `COC1=C[C@@H](C)[C@@H]2C[C@H]3OC(=O)C[C@H]4C(C)=C(OC)C(=O)[C@H]([C@@]2(C)C1=O)[C@@]34C` [Quassin] here?
A: 94.2%

Q: And the remaining activity at 3.75 µM ([2]; Well no.=3775)?
A: 101%

Q: With `COc1cc(C(=O)O[C@H]2C[C@@H]3CC[C@]2(C)C3(C)C)ccc1O` [Tschimganine] as the compound, how does the remaining activity at 1.25 µM ([1]; Well no.=3209) read?
A: 104%

Q: What about the remaining activity at 3.75 µM ([2]; Well no.=3209) of the same compound?
A: 104%

Q: How did the remaining activity at 1.25 µM ([1]; Well no.=1389) turn out when `CCSC(N)=Nc1ccc(C(F)(F)F)cc1` [TFPI hydrochloride] was run?
A: 95.8%

Q: And the remaining activity at 3.75 µM ([2]; Well no.=1389)?
A: 93.8%

Q: Which remaining activity at 1.25 µM ([1]; Well no.=8297) does the source give for `C[N+]1(C)[C@@H]2C[C@@H](OC(=O)[C@H](CO)c3ccccc3)C[C@H]1[C@@H]1O[C@@H]12` [Methscopolamine (bromide)] here?
A: 97.7%

Q: What about the remaining activity at 3.75 µM ([2]; Well no.=8297) of the same compound?
A: 96.8%

Q: `CCCCC[C@H](O)/C=C/[C@@H]1[C@@H](C/C=C\CCCC(=O)O)[C@@H](O)C[C@H]1O` [Dinoprost (tromethamine salt)] was tested. Which remaining activity at 1.25 µM ([1]; Well no.=6475) did it give?
A: 104%

Q: What about the remaining activity at 3.75 µM ([2]; Well no.=6475) of the same compound?
A: 105%

Q: How did the remaining activity at 1.25 µM ([1]; Well no.=4666) turn out when `Clc1ccc(COC(Cn2ccnc2)c2ccc(Cl)cc2Cl)c(Cl)c1` (stereo not shown) [Miconazole nitrate] was run?
A: 102%

Q: And the remaining activity at 3.75 µM ([2]; Well no.=4666)?
A: 103%

Q: Which results are given for `CN(C)CCOc1ccc(/C(=C(/CCCl)c2ccccc2)c2ccccc2)cc1` [Toremifene]?
A: remaining activity at 1.25 µM ([1]; Well no.=1966): 104%; remaining activity at 3.75 µM ([2]; Well no.=1966): 102%

Q: `Cc1cc(C)nc(NS(=O)(=O)c2ccc(NC(=S)NC(=O)COc3ccc(Br)cc3Cl)cc2)n1` [ZCL278] was tested. Which remaining activity at 1.25 µM ([1]; Well no.=7884) did it give?
A: 98.2%

Q: And the remaining activity at 1.25 µM ([1]; Well no.=8389)?
A: 102%

Q: And the remaining activity at 3.75 µM ([2]; Well no.=7884)?
A: 99.2%

Q: What about the remaining activity at 3.75 µM ([2]; Well no.=8389) of the same compound?
A: 96.3%

Q: How did the remaining activity at 1.25 µM ([1]; Well no.=2611) turn out when `Cc1cc2ncc(-c3ccccc3)nc2cc1C` [AG 1295] was run?
A: 97.5%

Q: What about the remaining activity at 3.75 µM ([2]; Well no.=2611) of the same compound?
A: 97.7%

Q: Which remaining activity at 1.25 µM ([1]; Well no.=4959) does the source give for `CCCCCCCCCCCCc1ccc(S(=O)(=O)Nc2nncs2)cc1` [PHT-427] here?
A: 96.5%

Q: And the remaining activity at 3.75 µM ([2]; Well no.=4959)?
A: 98.1%

Q: For `Oc1cc2c(cc1O)CN(C(=S)NCCc1ccc(Cl)cc1)CCC2` [Capsazepine], which remaining activity at 1.25 µM ([1]; Well no.=631) is on record?
A: 98.8%

Q: What about the remaining activity at 3.75 µM ([2]; Well no.=631) of the same compound?
A: 99.5%

Q: `CC(=O)NCCc1c(Cc2ccccc2)[nH]c2ccccc12` [Luzindole] was tested. Which remaining activity at 1.25 µM ([1]; Well no.=5524) did it give?
A: 92.5%

Q: And the remaining activity at 3.75 µM ([2]; Well no.=5524)?
A: 96.8%

Q: `CN(C)CCC(c1ccc(Cl)cc1)c1ccccn1` (single isomer, unassigned; (+)) [(+)-Chlorpheniramine maleate] was tested. Which remaining activity at 1.25 µM ([1]; Well no.=130) did it give?
A: 105%

Q: What about the remaining activity at 3.75 µM ([2]; Well no.=130) of the same compound?
A: 105%

Q: Which remaining activity at 1.25 µM ([1]; Well no.=4507) does the source give for `O=Cc1c2[nH]c3ccccc3c2cc2[nH]c3ccccc3c12` [6-Formylindolo [3,2-B] carbazole] here?
A: 90.7%

Q: What about the remaining activity at 3.75 µM ([2]; Well no.=4507) of the same compound?
A: 97.6%

Q: With `COc1c(C)cnc(Cn2cnc3c(Cl)nc(N)nc32)c1C` [BIIB021] as the compound, how does the remaining activity at 1.25 µM ([1]; Well no.=5091) read?
A: 104%

Q: And the remaining activity at 3.75 µM ([2]; Well no.=5091)?
A: 107%

Q: How did the remaining activity at 1.25 µM ([1]; Well no.=6213) turn out when `Cc1cn([C@@H]2O[C@H](CO)[C@@H](O)[C@H]2O)c(=O)[nH]c1=O` [5-Methyluridine] was run?
A: 101%

Q: And the remaining activity at 1.25 µM ([1]; Well no.=8891)?
A: 96.6%

Q: And the remaining activity at 3.75 µM ([2]; Well no.=6213)?
A: 91.5%

Q: And the remaining activity at 3.75 µM ([2]; Well no.=8891)?
A: 98.5%
